Experimental findings from US11225481B2 (Centre national de la recherche scientifique, priority 2015, dated 2022) are described below.

In one assay the target is T1, BRD3(BD1) (Homo sapiens, UniProt Q15059).
T1 construct: purchased BPS Bioscience
Description: HTRF bromodomain selectivity profile. It counts as binding. The note with it: Table 3 selectivity profile. As to the method:
(§1) Compounds were dispensed, with 200 nL per well (1% final DMSO), from a concentration stock of 1 mM in 100% DMSO and with serial DMSO dilutions, using a Mosquito Crystal pipetting robot platform (TTP labtech). […] All HTRF reagents were purchased from CisBio Bioassays and reconstituted according to the supplier protocols. For each assay 14.7 μL of mix 1 (protein+peptide) is added in the assay wells, containing previously dispensed inhibitors, according to the final concentration and buffer described in Table 4, using a Biomek NX MC pipetting robot (Beckman). Then, 5.1 μL of mix 2 (donnor+acceptor) is added. HTRF signals were measured, after a final incubation (overnight at room temperature), using a PHERAstar FS (BMG Labtech) with an excitation filter at 337 nm and fluorescence wavelength measurement at 620 and 665 nm, an integration delay of 60 μs and an integration time of 500 μs. Results were analyzed with a two-wavelengths signal ratio: […] Percentage of inhibition was calculated using the following equation: % inhibition=[(compound signal)−(min signal)]/[(max signal)−(min signal)]*100, where ‘max signal’ is the signal ratio with the compound vehicle alone (DMSO) and ‘min signal’ the signal ratio without peptide. For IC50 measurements, values were normalized and fitted with Prism (GraphPad software) using the following equation: […] Selectivity profiles of bromodomain inhibitors were performed as described in HTRF screen section. […] HTRF detection reagents (EPIgeneous™ Binding Domain kits) were purchased from Cisbio Bioassays and used according to supplier's protocol. GST tagged bromodomain proteins were purchased from BPS Bioscience and histone peptide from Anaspec. [table]

The next assay addresses T2, BRD3(BD2) (Homo sapiens, UniProt Q15059).
T2 construct: purchased BPS Bioscience
Description: HTRF bromodomain selectivity profile. The note with it: Table 3 selectivity profile. It counts as binding. The procedure:
as §1
In general terms: In TR-FRET formats the signal depends on donor and acceptor labels being close together.

Another assay has as its system Jurkat cells. The assay is described as follows: Cell Titer-Glo cell viability (cytotoxicity experiments). It counts as cell-based. The note with it: Homo sapiens, 72 h incubation at 37° C., read-out: EC50, Jurkat T cells viability. As to the method:
The human leukemia cell line Jurkat (ATCC® TIB-152) was maintained in RPMI-1640 medium supplemented with 10% FBS at 37° C. and 5% CO2. Human osteosarcoma cell line (U2OS, ATCC® HTB-96™) was maintained in DMEM supplemented with 10% FBS at 37° C. and 5% CO2.
In antiproliferative assays, compounds were assayed for their growth inhibiting activity towards the described cancer cell lines using the Cell Titer-Glo Luminescent Cell Viability Assay as described by the manufacturer (Promega Corporation). Briefly, […] cells were plated onto 96 well-plates (white with clear bottom (3610, Corning Costar)) in 100 μL media per well immediately before assay. Compounds were added at different concentrations (ranging from 100 to 0.05 μM) to each well and cell cultures were incubated 37° C. during 72 h. Vehicle (DMSO) was used as control and all compounds were tested in constant percentage of DMSO (1%). After addition of 50 μL Cell Titer-GLO, Luminescence was measured using a Centro luminometer LB960 (Berthold). Dose-response curves were generated and effective dose 50 values (EC50) were calculated using non-linear regression analysis (Graph Pad Prism).

Structures are written as SMILES.

T2 sequence (Q15059 306-415 limits assumed): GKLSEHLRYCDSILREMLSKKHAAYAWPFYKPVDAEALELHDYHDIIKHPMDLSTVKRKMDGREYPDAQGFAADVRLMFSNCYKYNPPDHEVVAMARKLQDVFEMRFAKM
T1 sequence (Q15059 34-140 limits assumed): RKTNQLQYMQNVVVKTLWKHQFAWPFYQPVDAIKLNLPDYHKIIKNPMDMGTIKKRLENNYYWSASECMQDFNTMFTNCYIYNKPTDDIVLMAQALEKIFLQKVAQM

For orientation: IC50 means the concentration at which inhibition is half-maximal. In general, EC50 refers to the concentration needed to bring the measured effect to its halfway point. Take `CCCCc1c(C)nc2nc(SCc3nc4c(c(=O)[nH]c(=O)n4CCCC)n3CC)nn2c1C` [Compound 26b, 3-Butyl-8-(6-butyl-5,7-dimethyl-[1,2,4]triazolo[1,5-a]pyrimidin-2-ylsulfanylmethyl)-7-ethyl-3,7-dihydro-purine-2,6-dione]: the IC50 on BRD3(BD1) was 62 ± 7.8 µM; against BRD3(BD2), over 100 µM. Also, the “IC50 (μM) BRD3(BD2)” value on BRD3(BD2) is “no detectable inhibition”. Also, the EC50 with Jurkat cells is 27 µM.
